Test results: patent publication US5672715A, “Herbicidal substituted 3-aryl-pyrazoles” (Monsanto Company, priority 1995, dated 1997)
Values joined by “and” are separate entries in the source; they are usually repeats but may differ in a detail not shown here. Identical values can stand only once.

Tests used:
Format in all cases: in vivo
Barnyardgrass = experiment: post-emergence herbicide test; settings: Echinochloa crus-galli, post-emergence, 0.25 lb/A; read-out: % plant inhibition
Text: (§1) Topsoil was placed in aluminum pans having holes in the bottom and compacted to a depth of 1.3 to 1.6 cm from the top of the pan. A predetermined number of seeds of each of several dicotyledonous and monocotyledonous annual plant species and/or vegetative propagules for the perennial plant species were placed on the soil and pressed into the soil surface. The seeds and/or vegetative propagules were covered with soil and leveled. The pans were then placed on a bench in the greenhouse and watered either from overheard irrigation or by subirrigation as needed. After the plants reach the desired age (two to three weeks), each pan, is removed individually to a spraying chamber and sprayed by means of an atomizer, operating at a spray pressure of 170.3 kPa […] at the application rates noted. In the spray solution was an amount of an emulsifying agent mixture to give a spray solution or suspension which contains about 0.4% by volume of the emulsifier. The spray solution or suspension contained a sufficient amount of the candidate chemical in order to give application rates of the active ingredient corresponding to those shown in Tables 4 and 5, while applying a total amount of solution or suspension equivalent to 1870 L/Ha (200 gallons/acre). […] The post-emergent herbicidal activity shown in these tables is the percent inhibition of each plant species. Testing with warm season and cool season plants is shown in tables 4a-4d and […], respectively.

Cocklebur = experiment: post-emergence herbicide test; settings: Xanthium strumarium, post-emergence, 0.25 lb/A; read-out: % plant inhibition
Text: as §1

Morning Glory = experiment: post-emergence herbicide test; settings: Ipomoea, post-emergence, 0.25 lb/A; read-out: % plant inhibition
Text: as §1

Soybean [1] = experiment: post-emergence herbicide test; settings: Glycine max, post-emergence, 0.25 lb/A; read-out: % plant inhibition
Text: as §1

Blackgrass [2] = experiment: post-emergence herbicide test; settings: Alopecurus myosuroides, post-emergence, 0.25 lb/A; read-out: % plant inhibition
Text: as §1

Wheat [3] = experiment: post-emergence herbicide test; settings: Triticum aestivum, post-emergence, 0.25 lb/A; read-out: % plant inhibition
Text: as §1

Downy Brome [4] = experiment: post-emergence herbicide test; settings: Bromus tectorum, post-emergence, 0.25 lb/A; read-out: % plant inhibition
Text: as §1

Corn [5] = experiment: post-emergence herbicide test; settings: Zea mays, post-emergence, 0.25 lb/A; read-out: % plant inhibition
Text: as §1

Birdseye Speedwell [6] = experiment: post-emergence herbicide test; settings: post-emergence, 0.25 lb/A; read-out: % plant inhibition
Text: as §1

Common Chickweed [7] = experiment: post-emergence herbicide test; settings: post-emergence, 0.25 lb/A; read-out: % plant inhibition
Text: as §1

Velvetleaf = experiment: post-emergence herbicide test; settings: Abutilon theophrasti, post-emergence, 0.25 lb/A; read-out: % plant inhibition
Text: as §1

Bedstraw Catchweed [8] = experiment: post-emergence herbicide test; settings: Galium aparine, post-emergence, 0.25 lb/A; read-out: % plant inhibition
Text: as §1

Wild Oats [9] = experiment: post-emergence herbicide test; settings: Avena fatua, post-emergence, 0.25 lb/A; read-out: % plant inhibition
Text: as §1

Green Foxtail [10] = experiment: post-emergence herbicide test; settings: Setaria viridis, post-emergence, 0.25 lb/A; read-out: % plant inhibition
Text: as §1

Giant Foxtail = experiment: post-emergence herbicide test; settings: Setaria faberi, post-emergence, 0.25 lb/A; read-out: % plant inhibition
Text: as §1

Seedling Johnsongrass = experiment: post-emergence herbicide test; settings: Sorghum halepense, post-emergence, 0.25 lb/A; read-out: % plant inhibition
Text: as §1

Rape [11] = experiment: post-emergence herbicide test; settings: post-emergence, 0.25 lb/A; read-out: % plant inhibition
Text: as §1

Soybean [12] = experiment: pre-emergence herbicide test; settings: 0.25 lb/A
Experimental: (§2) Topsoil was placed in an aluminum pan and compacted to a depth of 1.3 to 1.6 cm from the top of the pan. On the top of the soil was placed a predetermined number of seeds of each of several monocotyledonous and dicotyledonous annual plant species and/or vegetative propagules of various perennial plant species. The pan was then level filled with a cover layer of topsoil to which was added a known amount of active ingredient either prior to or after application of the cover layer. The active ingredient was dissolved or suspended in an organic solvent, e.g., acetone, or water as carrier for application to the cover layer. The pans were moved to a greenhouse bench where they were thereafter watered from below as needed to give adequate moisture for germination and growth. In some cases, an initial overhead irrigation of 1/4 inch of water was applied immediately after treatment.
(§3) Approximately 14 days after seeding and treating, the pans were observed and the results (% inhibition) were recorded.
(§4) The tables below summarize the results of the pre-emergence herbicidal activity tests of compounds of this invention tested with warm season plants (Tables 2a-2d) and cool season plants (Tables 3a and 3b). The herbicidal rating shown in these tables is the percent inhibition of each plant species. The plant species usually regarded as weeds are identified in the tables by single letter headings and crop species identified by two letter headings both headings being above the columns in accordance with the following legend: […]

Blackgrass [13] = experiment: pre-emergence herbicide test; settings: Alopecurus myosuroides, pre-emergence, 0.25 lb/A; read-out: % plant inhibition
Experimental: as §2, §3, §4

Wheat [14] = experiment: pre-emergence herbicide test; settings: Triticum aestivum, pre-emergence, 0.25 lb/A; read-out: % plant inhibition
Experimental: as §2, §3, §4

Downy Brome [15] = experiment: pre-emergence herbicide test; settings: Bromus tectorum, pre-emergence, 0.25 lb/A; read-out: % plant inhibition
Experimental: as §2, §3, §4

Corn [16] = experiment: pre-emergence herbicide test; settings: 0.25 lb/A
Experimental: as §2, §3, §4

Birdseye Speedwell [17] = experiment: pre-emergence herbicide test; settings: pre-emergence, 0.25 lb/A; read-out: % plant inhibition
Experimental: as §2, §3, §4

Common Chickweed [18] = experiment: pre-emergence herbicide test; settings: pre-emergence, 0.25 lb/A; read-out: % plant inhibition
Experimental: as §2, §3, §4

Bedstraw Catchweed [19] = experiment: pre-emergence herbicide test; settings: Galium aparine, pre-emergence, 0.25 lb/A; read-out: % plant inhibition
Experimental: as §2, §3, §4

Wild Oats [20] = experiment: pre-emergence herbicide test; settings: Avena fatua, pre-emergence, 0.25 lb/A; read-out: % plant inhibition
Experimental: as §2, §3, §4

Green Foxtail [21] = experiment: pre-emergence herbicide test; settings: Setaria viridis, pre-emergence; 0.25 lb/A; read-out: % plant inhibition
Experimental: as §2, §3, §4

Rape [22] = experiment: pre-emergence herbicide test; settings: pre-emergence, 0.25 lb/A; read-out: % plant inhibition
Experimental: as §2, §3, §4

SMILES: Cc1cc(-c2nn(C)c(C(F)(F)F)c2C)c(F)cc1Cl [Compound 33]
- inhibition at 280.212 g/ha (Barnyardgrass): 0%
- inhibition at 280.212 g/ha (Cocklebur): 0%
- inhibition at 280.212 g/ha (Morning Glory): 10%
- inhibition at 280.212 g/ha (Soybean [1]): 15%
- inhibition at 280.212 g/ha (Blackgrass [2]): 5%
- inhibition at 280.212 g/ha (Wheat [3]): 5%
- inhibition at 280.212 g/ha (Downy Brome [4]): 5%
- inhibition at 280.212 g/ha (Corn [5]): 0%
- inhibition at 280.212 g/ha (Birdseye Speedwell [6]): 15%
- inhibition at 280.212 g/ha (Common Chickweed [7]): 10%
- inhibition at 280.212 g/ha (Velvetleaf): 10%
- inhibition at 280.212 g/ha (Bedstraw Catchweed [8]): 10%
- inhibition at 280.212 g/ha (Wild Oats [9]): 5%
- inhibition at 280.212 g/ha (Green Foxtail [10]): 15%
- inhibition at 280.212 g/ha (Giant Foxtail): 0%
- inhibition at 280.212 g/ha (Seedling Johnsongrass): 0%
- inhibition at 280.212 g/ha (Rape [11]): 5%
- % plant inhibition (Soybean [12]): 5% and 0%
- inhibition at 280.212 g/ha (Blackgrass [13]): 40%
- inhibition at 280.212 g/ha (Wheat [14]): 0%
- inhibition at 280.212 g/ha (Downy Brome [15]): 10%
- % plant inhibition (Corn [16]): 10%
- inhibition at 280.212 g/ha (Birdseye Speedwell [17]): 55%
- inhibition at 280.212 g/ha (Common Chickweed [18]): 30%
- inhibition at 280.212 g/ha (Bedstraw Catchweed [19]): 45%
- inhibition at 280.212 g/ha (Wild Oats [20]): 5%
- inhibition at 280.212 g/ha (Green Foxtail [21]): 50%
- inhibition at 280.212 g/ha (Rape [22]): 10%
